Source: US11566007B2, “Ras inhibitors” (Revolution Medicines, Inc., priority 2019, dated 2023)
Where two headings read alike, the source gives them in different places.

Columns and labels:
[1] = system: NCI-H358 cells (K-Ras G12C); assay: Potency assay: pERK in NCI-H358 cells; format: cell-based, human
In short: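 Compounds are dosed as ten 3-fold dilutions from a 10 mM DMSO stock, in duplicate, and left on cells for 4 h at 37 °C, 5% CO2. Phospho-ERK1/2 is then quantified by AlphaLISA SureFire Ultra or In-Cell Western, and IC50 is derived from a 4-parameter sigmoid against log concentration.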

NRAS Q61K = NRAS Q61K (Homo sapiens (Human), UniProt P01111+P62937, Q61K); assay: Ras-Raf (BRAF RBD) disruption / FRET / MOA assay, NRAS Q61K; format: biochemical; settings: NRAS Q61K; Ras-Raf disruption/FRET/MOA assay; read-out: IC50* NRAS Q61K FRET data
In short: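 TR-FRET disruption of nucleotide-loaded Ras binding to BRAF RBD via compound-driven ternary complex with cyclophilin A. Compound as 10-point 3-fold series from 30 μM final, 3 h at 25° C, then anti-His Eu-W1024 (10 nM) and anti-GST allophycocyanin (50 nM) for 1.5 h. IC50 from decreased FRET ratio versus DMSO.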

[2] = Homo sapiens, NCI-H358, H358 KRAS G12C, read-out: pERK EC50

Sequence of NRAS Q61K (P01111 whole entry Q61K): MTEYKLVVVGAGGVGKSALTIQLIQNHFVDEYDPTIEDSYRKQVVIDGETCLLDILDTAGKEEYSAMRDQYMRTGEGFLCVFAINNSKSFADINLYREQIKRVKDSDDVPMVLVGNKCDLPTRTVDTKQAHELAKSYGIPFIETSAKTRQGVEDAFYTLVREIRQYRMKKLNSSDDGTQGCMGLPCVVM
Sequence of NRAS Q61K (P62937 whole entry): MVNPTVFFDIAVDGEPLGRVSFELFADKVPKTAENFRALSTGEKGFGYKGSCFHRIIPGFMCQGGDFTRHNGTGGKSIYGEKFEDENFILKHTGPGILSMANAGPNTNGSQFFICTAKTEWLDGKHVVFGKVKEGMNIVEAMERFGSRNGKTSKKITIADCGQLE

| EC50 ([1]; H358 KRAS G12C, read-out: pERK EC50) [µM] | SMILES | EC50 [1, 2] [µM] | IC50 (NRAS Q61K) [µM] | EC50 ([1]; Homo sapiens, NCI-H358, read-out: pERK EC50) [µM] |
| --- | --- | --- | --- | --- |
| – | C=CC(=O)N1CC[C@H](C(=O)N(C)[C@H](C(=O)N[C@H]2Cc3cc(O)cc(c3)-c3ccc4c(c3)c(c(-c3cccnc3[C@H](CC)OC)n4CC)CC(C)(C)COC(=O)[C@@H]3CCCN(N3)C2=O)C(C)C)C1 (atropisomer, axis not shown) [Example A181] | < 5 | 0.1 to 1 | – |
| – | C=CC(=O)N1CC[C@H](C(=O)N(C)[C@H](C(=O)N[C@H]2Cc3nc(ns3)-c3ccc4c(c3)c(c(-c3cccnc3[C@H](C)OC)n4CC)CC(C)(C)COC(=O)[C@@H]3CCCN(N3)C2=O)C(C)C)C1 (atropisomer, axis not shown) [Example A202] | < 5 | 1 to 10 | – |
| < 5 | C=CC(=O)N1CC[C@H](C(=O)N(C)[C@H](C(=O)N[C@H]2Cc3cc(O)cc(c3)-c3ccc4c(c3)c(c(-c3cccnc3[C@@H](OC)C3CC3)n4CC)CC(C)(C)COC(=O)[C@@H]3CCCN(N3)C2=O)C(C)C)C1 (atropisomer, axis not shown) [Example A207] | – | 0.1 to 1 | – |
| – | C=CC(=O)N1CC[C@H](C(=O)N(C)[C@H](C(=O)N[C@H]2Cc3cc(O)cc(c3)-c3ccc4c(c3)c(c(-c3cccnc3[C@@H]3CCCO3)n4CC)CC(C)(C)COC(=O)[C@@H]3CCCN(N3)C2=O)C(C)C)C1 (atropisomer, axis not shown) [Example A281] | < 5 | 0.1 to 1 | – |
| – | C=CC(=O)N1CC[C@H](C(=O)N(C)[C@H](C(=O)N[C@H]2Cc3nc(n(C)n3)-c3ccc4c(c3)c(c(-c3cccnc3[C@H](C)OC)n4CC)CC(C)(C)COC(=O)[C@@H]3CCCN(N3)C2=O)C(C)C)C1 (atropisomer, axis not shown) [Example A314] | < 5 | 0.1 to 1 | – |
| – | C=CC(=O)N1CC[C@H](C(=O)N(C)[C@H](C(=O)N[C@H]2Cc3csc(n3)-c3ccc4c(c3)c(c(-c3cccnc3[C@H](C)OC)n4CC)CC(C)(C)COC(=O)[C@@H]3CCCN(N3)C2=O)C(C)C)C1 (atropisomer, axis not shown) [Example A330] | < 5 | 0.1 to 1 | – |
| – | C=CC(=O)N1CC[C@]2(C1)CN(C(=O)N(C)[C@H](C(=O)N[C@H]1Cc3nc(cs3)-c3ccc4c(c3)c(c(-c3cccnc3[C@H](C)OC)n4CC)CC(C)(C)COC(=O)[C@@H]3CCCN(N3)C1=O)C(C)C)CCO2 (atropisomer, axis not shown) [Example A354] | < 5 | 0.01 to 0.1 | – |
| – | C=CC(=O)N1CC[C@@]2(C1)OCN([C@H](C(=O)N[C@H]1Cc3cccc(c3)-c3ccc4c(c3)c(c(-c3cccnc3[C@H](C)OC)n4CC)CC(C)(C)COC(=O)[C@@H]3CCCN(N3)C1=O)C(C)C)C2=O (atropisomer, axis not shown) [Example A358] | < 5 | 1 to 10 | – |
| – | CO[C@@H](C)c1ncccc1-c1c2c3cc(ccc3n1CC(F)(F)F)-c1csc(n1)C[C@H](NC(=O)CCOC1CN(C(=O)C#CC(C)(C)N3CCC3)C1)C(=O)N1CCC[C@H](N1)C(=O)OCC(C)(C)C2 (atropisomer, axis not shown) [Example A363] | < 5 | 1 to 10 | – |
| – | C=CC(=O)N(C)C[C@H]1CCN1C(=O)N(C)[C@H](C(=O)N[C@H]1Cc2nc(cs2)-c2ccc3c(c2)c(c(-c2cccnc2[C@H](C)OC)n3CC)CC(C)(C)COC(=O)[C@@H]2CCCN(N2)C1=O)C(C)C (atropisomer, axis not shown) [Example A369] | < 5 | 0.01 to 0.1 | – |
| – | C=CC(=O)N1CC[C@H](C(=O)N(C)[C@H](C(=O)N[C@H]2Cc3cccc(c3)-c3ccc4c(c3)c(c(-c3cccnc3[C@H](C)OC)n4CC)CC(C)(C)COC(=O)[C@@H]3CCCN(N3)C2=O)C(C)C)[C@H]1C (atropisomer, axis not shown) [Example A373] | < 5 | 1 to 10 | – |
| – | CO[C@@H](C)c1ncccc1-c1c2c3cc(ccc3n1CC(F)(F)F)-c1cc(cc(C(F)F)c1)C[C@H](NC(=O)[C@@H](COC1CN(C(=O)C#CC(C)(C)N(C)C)C1)C(C)C)C(=O)N1CCC[C@H](N1)C(=O)OCC(C)(C)C2 (atropisomer, axis not shown) [Example A374] | < 5 | > 10 | – |
| – | CCn1c(-c2cccnc2[C@H](C)OC)c2c3cc(ccc31)-c1csc(n1)C[C@H](NC(=O)CCO[C@H]1CCN(C(=O)C#CC(C)(C)N3CCC3)C1)C(=O)N1CCC[C@H](N1)C(=O)OCC(C)(C)C2 (atropisomer, axis not shown) [Example A381] | < 5 | 1 to 10 | – |
| – | C=CC(=O)N(C)C[C@@H]1CCN1C(=O)N(C)[C@H](C(=O)N[C@H]1Cc2nc(cs2)-c2ccc3c(c2)c(c(-c2cccnc2[C@H](C)OC)n3CC)CC(C)(C)COC(=O)[C@@H]2CCCN(N2)C1=O)C(C)C (atropisomer, axis not shown) [Example A390] | < 5 | 0.1 to 1 | – |
| – | C=CC(=O)N1CC[C@H](C(=O)N(C)[C@H](C(=O)N[C@H]2Cc3cccc(c3)-c3ccc4c(c3)c(c(-c3cc(C5CN(C)C5)cnc3[C@H](C)OC)n4CC)CC(C)(C)COC(=O)[C@@H]3CCCN(N3)C2=O)C(C)C)C1 (atropisomer, axis not shown) [Example A392] | < 5 | > 10 | – |
| – | C=CC(=O)N1CC[C@H](C(=O)N(C)[C@H](C(=O)N[C@H]2Cc3cccc(n3)-c3ccc4c(c3)c(c(-c3cccnc3[C@H](C)OC)n4CC)CC(C)(C)COC(=O)[C@@H]3CCCN(N3)C2=O)C(C)C)C1 (atropisomer, axis not shown) [Example A442] | < 5 | 1 to 10 | – |
| – | C=CC(=O)N1CC[C@H](C(=O)N(C)[C@H](C(=O)N[C@H]2Cc3cccc(c3)-c3ccc4c(c3)c(c(-c3cccnc3[C@H](C)OC)n4CC3COC3)CC(C)(C)COC(=O)[C@@H]3CCCN(N3)C2=O)C(C)C)C1 (atropisomer, axis not shown) [Example A481] | < 5 | 1 to 10 | – |
| – | C=CC(=O)N1CC[C@H](C(=O)N2CCCCC[C@H]2C(=O)N[C@H]2Cc3nc(cs3)-c3ccc4c(c3)c(c(-c3cccnc3[C@H](C)OC)n4CC)CC(C)(C)COC(=O)[C@@H]3CCCN(N3)C2=O)C1 (atropisomer, axis not shown) [Example A495] | < 5 | 1 to 10 | – |
| – | C=CC(=O)N(C)CCN1CCN(C(=O)N(C)[C@H](C(=O)N[C@H]2Cc3cccc(c3)-c3ccc4c(c3)c(c(-c3cccnc3[C@H](C)OC)n4CC)CC(C)(C)COC(=O)[C@@H]3CCCN(N3)C2=O)C(C)C)CC1 (atropisomer, axis not shown) [Example A539] | < 5 | 0.1 to 1 | – |
| – | C=CC(=O)N1CCOC2(CCN(C(=O)N(C)[C@H](C(=O)N[C@H]3Cc4cc(C(F)F)cc(n4)-c4ccc5c(c4)c(c(-c4cccnc4[C@H](C)OC)n5CC(F)(F)F)CC(C)(C)COC(=O)[C@@H]4CCCN(N4)C3=O)C(C)C)CC2)C1 (atropisomer, axis not shown) [Example A541] | < 5 | 0.1 to 1 | – |
| – | C=CC(=O)N1CCC[C@]12CCN(C(=O)N(C)[C@H](C(=O)N[C@H]1Cc3nc(cs3)-c3ccc4c(c3)c(c(-c3cccnc3[C@H](C)OC)n4CC)CC(C)(C)COC(=O)[C@@H]3CCCN(N3)C1=O)C(C)C)C2 (atropisomer, axis not shown) [Example A548] | < 5 | 0.1 to 1 | – |
| – | C=CC(=O)N(C)CCN1CCN(C(=O)N(C)[C@H](C(=O)N[C@H]2Cc3cccc(c3)-c3ccc4c(c3)c(c(-c3cccnc3[C@H](C)OC)n4CC)CC(C)(C)COC(=O)[C@@H]3CCCN(N3)C2=O)C(C)C)C[C@H]1C (atropisomer, axis not shown) [Example A553] | < 5 | 1 to 10 | – |
| – | C=CC(=O)N1CCC2(CCN(C(=O)N(C)[C@H](C(=O)N[C@H]3Cc4cccc(c4)-c4ccc5c(c4)c(c(-c4cccnc4[C@H](C)OC)n5CC)CC(C)(C)COC(=O)[C@@H]4CCCN(N4)C3=O)C(C)C)CC2)C1 (atropisomer, axis not shown) [Example A554] | < 5 | 0.1 to 1 | – |
| – | C=CC(=O)N1CC[C@]2(C1)OCN([C@H](C(=O)N[C@H]1Cc3cc(cc(C(F)F)c3)-c3ccc4c(c3)c(c(-c3cccnc3[C@H](C)OC)n4CC)CC(C)(C)COC(=O)[C@@H]3CCCN(N3)C1=O)C(C)C)C2=O (atropisomer, axis not shown) [Example A557] | < 5 | 1 to 10 | – |
| – | CCn1c(-c2cccnc2[C@H](C)OC)c2c3cc(ccc31)-c1cccc(c1)C[C@H](NC(=O)[C@H](C(C)C)N1CC[C@]3(CCN(C(=O)C#C[C@H]4COCCN4C4COC4)C3)C1=O)C(=O)N1CCC[C@H](N1)C(=O)OCC(C)(C)C2 (atropisomer, axis not shown) [Example A568] | < 5 | > 10 | – |
| – | CCn1c(-c2cccnc2[C@H](C)OC)c2c3cc(ccc31)-c1cccc(c1)C[C@H](NC(=O)[C@H](C(C)C)N1CC[C@]3(CCN(C(=O)C#C[C@@H]4COCCN4C)C3)C1=O)C(=O)N1CCC[C@H](N1)C(=O)OCC(C)(C)C2 (atropisomer, axis not shown) [Example A569] | – | > 10 | < 5 |
| – | C=CC(=O)N(C)CCN1CCN(C(=O)N(C)[C@H](C(=O)N[C@H]2Cc3cccc(c3)-c3ccc4c(c3)c(c(-c3cccnc3[C@H](C)OC)n4CC)CC(C)(C)COC(=O)[C@@H]3CCCN(N3)C2=O)C(C)C)C[C@@H]1C (atropisomer, axis not shown) [Example A570] | < 5 | 0.1 to 1 | – |
| – | C=CC(=O)N1CCO[C@H]2CN(C(=O)N(C)[C@H](C(=O)N[C@H]3Cc4nc(n(C)n4)-c4ccc5c(c4)c(c(-c4cccnc4[C@H](C)OC)n5CC(F)(F)F)CC(C)(C)COC(=O)[C@@H]4CCCN(N4)C3=O)C(C)C)C[C@H]21 (atropisomer, axis not shown) [Example A575] | < 5 | 0.1 to 1 | – |
